Tests used:
Highly purified T cells [1] = experiment: T cell proliferation induced by anti-CD3 mAb+PMA (BrdU); assay type: cell-based, human; details: read-out: IC50 aCD3
Text: T cells were purified by removing non-T cells. Briefly, monocytes were removed by cold agglutination. The resulting lymphoid cells were further purified by a cell enrichment immunocolumn [Cellect Human T (Biotex, Edmonton, Alberta, Canada)] by a process of negative selection.
(§1) Measurements of T Cell Proliferations Induced by Anti-CD3 mAB+PMA or Anti-CD28 mAb+PMA
(§2) Highly purified T cells (10^6/ml) were stimulated by immobilized anti-CD3 or anti-CD28 mAb in the presence of PMA. Anti-CD3 mAb (CLB-CD3; CLB, Amsterdam, The Netherlands) were fixed on the 96-microwell plates by incubating the wells with 50 μl of mAb solution […] 50 μl (1/650 dilution in culture medium) was added directly to the wells. Further, 20 μl PMA (Sigma, St. Louis, Mo., USA) solution (final concentration: 0.5 ng/ml) was added. Subsequently, 20 μl of immunosuppressants were added by serial dilution in triplicate wells. Finally 100 μl of the T cell suspension (10^6/ml) was added. After 48-hour incubation at 37° C. in 5% CO2 20 μl BrdU (100 μM solution) (Cell Proliferation Elisa, Boehringer-Mannheim Belgium) was added to each well. After a further overnight incubation the T cell proliferation was measured using a calorimetric immunoassay for qualification of cell proliferation based on measurements of the incorporation of BrdU during DNA synthesis. The optical density (OD) was measured by a Behring EL311 place reader at 450 nm (reference wavelength: […]). The percent suppression of proliferation by drugs was counted using the formula: […]

[2] = tested on: Peripheral blood mononuclear cells (PBMC); experiment: Mixed lymphocyte reaction (MLR), [3H]-thymidine incorporation; assay type: cell-based, human
Text: (§3) Various models may be used for testing an immunosuppressive effect. In vivo, for example, different transplantation models are available. They are strongly influenced by different immunogenicities, depending on the donor and recipient species used and depending on the nature of the transplanted organ. The survival time of transplanted organs can thus be used to measure the suppression of the immune response. In vitro, there exist also various models. The most used are lymphocyte activation tests. Usually activation is measured via lymphocyte proliferation. Inhibition of proliferation thus always means immunosuppression under the experimental conditions applied. There exist different stimuli for lymphocyte activation: • coculture of lymphocytes of […] (MLR=mixed lymphocyte reaction): lymphocytes expressing different minor and major antigens of the HLA-DR type (=allogens) activate each other non-specifically. • CD3 assay: here there is an activation of the T-lymphocytes via an exogenously added antibody (OKT3). This antibody reacts against the CD3 molecule located on the lymphocyte membrane. This molecule has a […]. […] This molecule is also located on the lymphocyte membrane, and delivers strong costimulatory signals. […] Reagents
Mixed Lymphocyte Reaction
Peripheral blood mononuclear cells (PBMC) were isolated from heparinized peripheral blood by density gradient centrifugation over Lymphoprep (Nycomed, Maorstua, Norway). Allogeneic PBMC or EBV-transformed human B cells [RPMI1788 (ATCC name CCL156)] which strongly express B7-1 and B7-2 were used as stimulator calls after irradiation with 30 Gy. MLR was performed in triplicate wells. After 5 days incubation at 37° C., 1 μCi [^3H]-thymidine was added to each cup. After a further 16 hours incubation, cells were harvested and counted in a β-counter.
The percent suppression of proliferation by drugs was counted using the formula: […]

[3] = tested on: Con A induced proliferation of lymphocytes; experiment: Whole Blood Assay (WBA): Con A induced lymphoproliferation in blood of rats given test substances in vivo; design: species or system R/A rats; details: orally 40 mg/kg/d 2x/d 2d, blood taken after 8 h, Con A 15 μg/ml
Experimental: [formula] […] Whole Blood Assay (WBA): WBA is a lymphoproliferation assay performed in vitro but using lymphocytes present in whole blood, taken from animals that were previously given test substances in vivo.
Rats: inbred, male 6- to 8-weeks old R/A rats weighing ±200 g were used as recipients.
Drug administration: xanthine derivatives were dissolved in DMSO and further diluted with PBS. Products were given orally in different concentrations 2 times a day for 2 days. To perform the experiments, 6–8 hours after the last administration 1 ml of blood is taken by heart puncture after ether anesthesia and anticoagulated with 100 U/ml of preservative free heparine. […]
Heparinized whole blood was diluted (1:25) with complete RPMI medium and stimulated with 15 μg/ml of concanavalin A (Con A) in triplicate wells in 96-well microtiter plates at 37° C. and 5% CO2. After 96-h culture, proliferation was determined by measuring the incorporation (cpm) of [^3H]-thymidine.
The Con A induced proliferation of lymphocytes taken from rats receiving the test substances (exp) was compared with that from rats receiving only the solvent (con). The percent suppression was calculated as follows: […]

Highly purified T cells [4] = experiment: T cell proliferation induced by anti-CD28 mAb+PMA (BrdU); assay type: cell-based, human; details: read-out: IC50 aCD28
Text: as §3
T cells were purified by removing non-T cells. Briefly, monocytes were removed by cold agglutination. The resulting lymphoid cells were further purified by a cell enrichment immunocolumn [Cellect Human T (Biotex, Edmonton, Alberta, Canada)] by a process of negative selection. More than 95% of the B cells were removed with this procedure. After depletion, the resulting T cell preparation was highly purified explaining these cells could not be activated by PHA or rIL-2 alone at concentrations capable of stimulating RBMC prior to deletion.
as §1, §2

[5] = Homo sapiens, T-cell, anti-CD3 mAb+PMA pathway
[6] = Homo sapiens, PBMC, lowest concentration giving 50% suppression of the MLR
[7] = Homo sapiens, T-cell, anti-CD28 mAb+PMA pathway
[8] = Homo sapiens, T-cell, immunosuppressants for comparison, anti-CD3 mAb+PMA
[9] = Homo sapiens, T-cell, immunosuppressants for comparison, anti-CD28 mAb+PMA

| Compound | melting point | IC50 (Highly purified T cells [1]; [5]) | IC50 [2, 6] | IC50 (Highly purified T cells [4]; [7]) | further results |
| --- | --- | --- | --- | --- | --- |
| 1,3-dipropyl-8-[4(diethylamino(propyl(amino-(sulfonyl))))fenyl]xanthine [Compound 11] | – | – | – | – | IC50 (Highly purified T cells [1]; anti-CD3 mAb+PMA pathway): 40 µM; IC50 ([2]; lowest concentration giving 50% suppression of the MLR): 25 µM; % suppresion [3]: 33%; IC50 (Highly purified T cells [4]; anti-CD28 mAb+PMA pathway): 55 µM |
| CC#Cn1c(=O)c2c(ncn2C#CC)n(C)c1=O [Compound 2, 1,7-dipropynyl-3-methylxanthine] | 177 °C | – | – | – | – |
| Cc1oncc1C(=O)Nc1ccc(C(F)(F)F)cc1 [Leflunomide, reference compound] | – | 15 µM | 25 µM | 20 µM | – |
| COc1c(C)c2c(c(O)c1C/C=C(\C)CCC(=O)O)C(=O)OC2 [Moferil, Mycophenolic acid, reference compound] | – | – | < 0.5 µM | – | IC50 (Highly purified T cells [1]; [8]): 0.05 µM; IC50 (Highly purified T cells [4]; [9]): 0.05 µM |
| CO[C@H]1C[C@@H]2CC[C@@H](C)[C@@](O)(O2)C(=O)C(=O)N2CCCC[C@H]2C(=O)O[C@H]([C@H](C)C[C@@H]2CC[C@@H](O)[C@H](OC)C2)CC(=O)[C@H](C)/C=C(\C)[C@@H](O)[C@@H](OC)C(=O)[C@H](C)C[C@H](C)/C=C/C=C/C=C/1C [Rapamycin, reference compound] | – | – | – | – | IC50 (Highly purified T cells [1]; [8]): 0.001 µM; IC50 ([2]; Homo sapiens, PBMC, immunosuppressants for comparison): 0.001 µM; IC50 (Highly purified T cells [4]; [9]): 0.001 µM |

Further lines, with some results ahead:

| melting point | Compound | IC50 (Highly purified T cells [1]; [5]) | IC50 [2, 6] | IC50 (Highly purified T cells [4]; [7]) | further results |
| --- | --- | --- | --- | --- | --- |
| 172 °C | CC#Cn1c(=O)c2c(ncn2C)n(C#CC)c1=O [Compound 4, 1,3-dipropynyl-7-methylxanthine] | 90 µM | > 200 µM | > 200 µM | – |
| 155 °C | CC#Cn1c(=O)c2c(ncn2C#CC)n(C#CC)c1=O [Compound 5, 1,3,7-tripropynylxanthine] | 50 µM | > 200 µM | > 200 µM | – |
| 195 °C | Cn1cnc2c1c(=O)n(CCCCC(=O)O)c(=O)n2C [Compound 22, 1-(4-Carboxybutyl)-3,7-dimethylxanthine] | > 200 µM | > 200 µM | > 200 µM | – |
| 158 °C | Cn1c(=O)c2c(ncn2C)n(CC(C)(C)C)c1=O [Compound 68, 1,7-dimethyl-3-((tertbutyl)methyl)xanthine] | 130 µM | 75 µM | 120 µM | – |

From US7253176B1, “Immunosuppressive effects of 8-substituted xanthine derivatives” (K.U. Leuven Research & Development, priority 2000, dated 2007)
